Measured values taken from article PMC3914206.

Legend:
Format in all cases: binding
Details in all cases: Compound Concentration 10 µM
panel of 442 kinases [1] = target: T1, panel of 442 kinases (Homo sapiens, UniProt Q8NFD2)
T1 construct: purchased KINOMEscan
T1 sequence (Q8NFD2 1-765): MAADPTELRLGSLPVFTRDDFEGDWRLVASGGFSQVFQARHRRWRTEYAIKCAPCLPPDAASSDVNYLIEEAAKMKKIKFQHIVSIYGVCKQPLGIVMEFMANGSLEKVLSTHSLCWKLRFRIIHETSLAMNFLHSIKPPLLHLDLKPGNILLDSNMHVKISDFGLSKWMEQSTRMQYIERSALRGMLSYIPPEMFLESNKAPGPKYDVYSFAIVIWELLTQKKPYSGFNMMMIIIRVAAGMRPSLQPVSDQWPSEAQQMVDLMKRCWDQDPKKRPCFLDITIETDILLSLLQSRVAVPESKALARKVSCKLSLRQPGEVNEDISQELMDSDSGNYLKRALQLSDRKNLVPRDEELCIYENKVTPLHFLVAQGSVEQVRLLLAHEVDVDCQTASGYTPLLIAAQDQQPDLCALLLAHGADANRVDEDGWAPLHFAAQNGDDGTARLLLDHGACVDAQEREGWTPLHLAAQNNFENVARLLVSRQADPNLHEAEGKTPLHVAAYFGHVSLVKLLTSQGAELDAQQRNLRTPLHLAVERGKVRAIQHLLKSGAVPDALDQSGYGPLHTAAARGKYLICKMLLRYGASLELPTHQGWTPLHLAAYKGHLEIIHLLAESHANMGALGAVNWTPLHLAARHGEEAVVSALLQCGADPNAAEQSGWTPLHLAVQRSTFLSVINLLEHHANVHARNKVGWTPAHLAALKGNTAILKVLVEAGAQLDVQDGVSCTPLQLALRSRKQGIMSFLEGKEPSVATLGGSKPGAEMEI
From the text: (§1) We assessed the selectivity of members of this scaffold using the KINOMEscan methodology across a near comprehensive panel of 442 kinases [[18,27]].

panel of 442 kinases [2] = target: T2, panel of 442 kinases (Homo sapiens, UniProt Q9H4B4)
T2 construct: purchased KINOMEscan
From the text: as §1

panel of 442 kinases [3] = target: T3, panel of 442 kinases (Homo sapiens, UniProt Q9Y4K4)
T3 construct: purchased KINOMEscan
From the text: as §1

T2 sequence (Q9H4B4 whole entry): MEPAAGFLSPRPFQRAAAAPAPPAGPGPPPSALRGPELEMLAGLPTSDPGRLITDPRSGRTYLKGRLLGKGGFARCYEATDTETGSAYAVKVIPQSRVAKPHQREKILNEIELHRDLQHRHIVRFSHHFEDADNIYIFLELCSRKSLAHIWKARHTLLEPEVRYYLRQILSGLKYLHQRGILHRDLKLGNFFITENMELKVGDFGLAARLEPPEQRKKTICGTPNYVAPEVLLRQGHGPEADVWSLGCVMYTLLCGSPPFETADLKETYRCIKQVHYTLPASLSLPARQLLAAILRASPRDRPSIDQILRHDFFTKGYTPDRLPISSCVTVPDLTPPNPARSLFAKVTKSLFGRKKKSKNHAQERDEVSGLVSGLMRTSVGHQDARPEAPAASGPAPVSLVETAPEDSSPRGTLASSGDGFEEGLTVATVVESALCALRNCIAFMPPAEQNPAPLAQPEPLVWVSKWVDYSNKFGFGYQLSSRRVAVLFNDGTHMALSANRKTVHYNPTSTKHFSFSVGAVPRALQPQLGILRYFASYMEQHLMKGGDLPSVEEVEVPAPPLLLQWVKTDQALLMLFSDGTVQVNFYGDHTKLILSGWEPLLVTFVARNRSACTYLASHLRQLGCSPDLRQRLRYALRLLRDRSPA
T3 sequence (Q9Y4K4 whole entry): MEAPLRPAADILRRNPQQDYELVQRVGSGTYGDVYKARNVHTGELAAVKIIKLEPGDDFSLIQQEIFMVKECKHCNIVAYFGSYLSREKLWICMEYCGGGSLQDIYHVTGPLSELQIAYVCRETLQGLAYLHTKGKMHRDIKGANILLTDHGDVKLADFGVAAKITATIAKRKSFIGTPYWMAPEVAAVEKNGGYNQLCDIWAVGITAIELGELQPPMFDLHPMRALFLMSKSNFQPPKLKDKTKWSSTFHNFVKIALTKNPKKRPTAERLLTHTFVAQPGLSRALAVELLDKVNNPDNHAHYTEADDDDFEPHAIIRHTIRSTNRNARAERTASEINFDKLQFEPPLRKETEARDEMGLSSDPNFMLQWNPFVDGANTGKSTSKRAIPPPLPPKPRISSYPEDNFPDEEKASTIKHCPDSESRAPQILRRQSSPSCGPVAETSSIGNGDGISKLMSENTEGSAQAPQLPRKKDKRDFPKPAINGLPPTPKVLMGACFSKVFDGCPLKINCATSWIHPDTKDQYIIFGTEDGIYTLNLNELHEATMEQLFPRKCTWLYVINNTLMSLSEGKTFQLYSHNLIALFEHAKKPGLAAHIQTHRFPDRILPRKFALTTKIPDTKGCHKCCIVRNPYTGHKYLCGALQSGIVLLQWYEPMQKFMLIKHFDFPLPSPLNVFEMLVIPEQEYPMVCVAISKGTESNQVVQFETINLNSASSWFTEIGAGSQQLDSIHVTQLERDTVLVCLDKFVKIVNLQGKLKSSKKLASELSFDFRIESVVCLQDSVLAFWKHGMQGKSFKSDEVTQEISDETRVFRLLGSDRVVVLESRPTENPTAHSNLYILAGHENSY

Compound	KINOMEscan: ANKK1 (panel of 442 kinases [1])	KINOMEscan: PLK3 (panel of 442 kinases [2])	KINOMEscan: MAP4K5 (panel of 442 kinases [3])
COc1cc(C(=O)N2CCC(N3CCN(C)CC3)CC2)ccc1Nc1ncc2c(n1)N(C)c1ccccc1C(=O)N2C [15 (LRRK2-IN-1)]	100	51	100
COc1cc(C(=O)N2CCC(N3CCN(C)CC3)CC2)ccc1Nc1ncc2c(n1)N1CCc3cccc(c31)C(=O)N2C [Compound 24]		3.8	72
COc1cc(C(=O)N2CCC(N3CCN(C)CC3)CC2)ccc1Nc1ncc2c(n1)N(C1CCCC1)c1ccccc1C(=O)N2C [Compound 25, 11-cyclopentyl-2-((2-methoxy-4-(4-(4-methylpiperazin-1-yl)piperidine-1-carbonyl)phenyl)amino)-5-methyl-5H-benzo[e]pyrimido[5,4-b][1,4]diazepin-6(11H)-one]	85	73	96
CCOc1cc(C(=O)N2CCC(N3CCN(C)CC3)CC2)ccc1Nc1ncc2c(n1)N(C1CCCC1)c1ccccc1C(=O)N2C [Compound 26]	84	84	95
